US20220227700A1, “HDAC3 CATALYTIC INHIBITOR DEVELOPMENT AND USES THEREOF” (DANA-FARBER CANCER INSTITUTE, INC., priority 2019, published 2022)
Like-named read-outs stand apart in the source and are kept apart here.

What was measured:
Format in all cases: biochemical
HDAC3 = target: T1, HDAC3 (Homo sapiens, UniProt O15379); assay: HDAC enzyme assay, HDAC3 (fluorogenic, 384-well); details: for IC50: recombinant full-length HDAC3, 3 hours incubation, substrate MAZ1600 at Km
T1 construct: recombinant, full-length HDAC protein (HDAC1 100 pg/ul, HDAC2 200 pg/ul, HDAC3 100 pg/ul); purchased BPS Biosciences, San Diego, Calif., USA
Procedure: (§1) The inhibitory effect of compounds on HDAC1-HDAC9 function was determined in vitro using an optimized homogenous assay performed in a 384-well plate format. […] Reactions were performed in assay buffer (50 mM HEPES, 100 mM KCl, 0.001% (v/v) Tween 20, 0.05% (w/v) bovine serum albumin, 200 μM TCEP, pH 7.4) and followed for fluorogenic release of 7-amino-4-methylcoumarin from substrate upon deacetylase and trypsin enzymatic activity. Trypsin was present at a final concentration of 50 nM (Worthington Biochemical Corporation). Fluorescence measurements were obtained approximately every 5 min using a multilabel plate reader and plate stacker (Envision, Perkin-Elmer). Data were analyzed on a plate-by-plate basis for the linear range of fluorescence overtime. The first derivative of data obtained from the plate capture corresponding to the mid-linear range was imported into analytical software (Spotfire DecisionSite and GraphPad Prism). Replicate experimental data from incubations with inhibitor were normalized to DMSO controls. IC50 is determined by logistic regression with unconstrained maximum and minimum values.

HDAC1 = target: T2, HDAC1 (Homo sapiens, UniProt Q13547); assay: HDAC enzyme assay, HDAC1 (fluorogenic, 384-well); details: read-out: IC50 HDAC1 (Tables 4-23, isoform selectivity panel)
T2 construct: recombinant, full-length HDAC protein (HDAC1 100 pg/ul); purchased BPS Biosciences, San Diego, Calif., USA
Procedure: as §1

HDAC2 = target: T3, HDAC2 (Homo sapiens, UniProt Q92769); assay: HDAC enzyme assay, HDAC2 (fluorogenic, 384-well); details: read-out: IC50 HDAC2 (Tables 4-23, isoform selectivity panel)
T3 construct: recombinant, full-length HDAC protein (HDAC1 100 pg/ul, HDAC2 200 pg/ul); purchased BPS Biosciences, San Diego, Calif., USA
Procedure: as §1

[1] = FIGS. 4A-4D, read-out: IC50 HDAC3 (Tables 4-23, isoform selectivity panel)
[2] = read-out: IC50 against HDAC3 (Table 3, data of FIG. 2)

T2 sequence (Q13547 whole entry, canonical isoform): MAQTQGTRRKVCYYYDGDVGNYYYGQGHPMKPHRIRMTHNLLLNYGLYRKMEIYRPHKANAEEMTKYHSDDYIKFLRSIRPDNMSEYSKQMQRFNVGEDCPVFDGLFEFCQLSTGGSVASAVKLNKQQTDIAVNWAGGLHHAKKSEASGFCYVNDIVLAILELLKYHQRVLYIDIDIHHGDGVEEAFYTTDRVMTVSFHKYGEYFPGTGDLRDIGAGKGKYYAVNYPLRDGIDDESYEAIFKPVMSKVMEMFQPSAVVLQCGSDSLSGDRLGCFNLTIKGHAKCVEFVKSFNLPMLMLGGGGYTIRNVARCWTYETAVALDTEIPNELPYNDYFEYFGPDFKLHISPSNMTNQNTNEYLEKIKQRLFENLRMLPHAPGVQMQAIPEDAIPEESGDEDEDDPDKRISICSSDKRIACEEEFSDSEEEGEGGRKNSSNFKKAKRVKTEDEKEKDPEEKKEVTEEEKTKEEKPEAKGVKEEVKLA
T1 sequence (O15379 whole entry): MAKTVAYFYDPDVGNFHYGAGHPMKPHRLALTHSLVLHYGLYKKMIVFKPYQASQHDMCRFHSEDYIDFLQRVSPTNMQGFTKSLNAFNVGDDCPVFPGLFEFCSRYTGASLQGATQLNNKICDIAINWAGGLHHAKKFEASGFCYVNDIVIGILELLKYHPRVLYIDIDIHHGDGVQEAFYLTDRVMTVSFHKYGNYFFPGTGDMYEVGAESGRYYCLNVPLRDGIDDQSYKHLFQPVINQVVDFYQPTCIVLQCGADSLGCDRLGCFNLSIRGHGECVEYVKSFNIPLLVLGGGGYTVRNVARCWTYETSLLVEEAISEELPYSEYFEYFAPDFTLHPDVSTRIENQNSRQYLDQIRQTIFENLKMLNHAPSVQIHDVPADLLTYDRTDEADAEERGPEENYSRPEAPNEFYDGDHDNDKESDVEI
T1 sequence (Q9Y618 395-489 partner limits assumed): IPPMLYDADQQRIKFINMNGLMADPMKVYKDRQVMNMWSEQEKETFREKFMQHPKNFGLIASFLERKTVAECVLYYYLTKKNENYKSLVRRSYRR
T3 sequence (Q92769 whole entry, canonical isoform): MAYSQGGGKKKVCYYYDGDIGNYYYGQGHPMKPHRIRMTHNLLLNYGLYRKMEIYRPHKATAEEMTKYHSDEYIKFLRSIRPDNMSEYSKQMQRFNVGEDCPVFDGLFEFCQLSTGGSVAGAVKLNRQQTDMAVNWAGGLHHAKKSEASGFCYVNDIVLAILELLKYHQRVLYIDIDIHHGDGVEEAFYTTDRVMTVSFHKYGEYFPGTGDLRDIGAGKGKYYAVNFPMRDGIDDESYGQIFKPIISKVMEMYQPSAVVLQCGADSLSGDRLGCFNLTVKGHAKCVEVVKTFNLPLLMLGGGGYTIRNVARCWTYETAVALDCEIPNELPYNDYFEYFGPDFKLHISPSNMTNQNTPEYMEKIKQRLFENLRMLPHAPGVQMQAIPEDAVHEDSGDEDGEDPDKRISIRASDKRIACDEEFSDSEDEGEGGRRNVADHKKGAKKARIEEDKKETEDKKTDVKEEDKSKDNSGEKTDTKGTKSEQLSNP

**Q.** For Nc1cc(F)ccc1NC(=O)c1ccc(C(=O)NCCCn2ccnc2)cc1 (racemic) [DL-HDAC19], which IC50 (HDAC3; [1]) is on record?
**A.** 290 nM

**Q.** What about the IC50 (HDAC3; [2]) of the same molecule?
**A.** 270 nM

**Q.** And the IC50 (HDAC1)?
**A.** 2790 nM

**Q.** What about the IC50 (HDAC2) of the same molecule?
**A.** 610 nM

**Q.** Nc1cc(F)ccc1NC(=O)c1ccc(C(=O)Nc2cccc3ncccc23)cc1 (racemic) [DL-HDAC1] was tested. Which IC50 (HDAC3; [1]) did it give?
**A.** 11100 nM

**Q.** And the IC50 (HDAC3; [2])?
**A.** 10500 nM

**Q.** What does the source list for Nc1cc(F)ccc1NC(=O)c1ccc(C(=O)Nc2cccc3[nH]ccc23)cc1 (racemic) [DL-HDAC3]?
**A.** IC50 (HDAC3; [1]): 230 nM; IC50 (HDAC3; [2]): 230 nM; IC50 (HDAC1): 1050 nM; IC50 (HDAC2): 490 nM

**Q.** Nc1cc(F)ccc1NC(=O)c1ccc(C(=O)Nc2cccc3cnccc23)cc1 (racemic) [DL-HDAC9] was tested. Which IC50 (HDAC3; [1]) did it give?
**A.** 550 nM

**Q.** And the IC50 (HDAC3; [2])?
**A.** 630 nM

**Q.** And the IC50 (HDAC1)?
**A.** 1550 nM

**Q.** And the IC50 (HDAC2)?
**A.** 930 nM

**Q.** How did the IC50 (HDAC3; [1]) turn out when COc1cc(-c2ccccc2)ccc1NC(=O)c1ccc(C(=O)Nc2ccc(F)cc2N)cc1 (racemic) [DL-HDAC11] was run?
**A.** 8810 nM

**Q.** And the IC50 (HDAC3; [2])?
**A.** 7770 nM

**Q.** And the IC50 (HDAC1)?
**A.** 36000 nM

**Q.** And the IC50 (HDAC2)?
**A.** 4690 nM

**Q.** For Nc1cc(F)ccc1NC(=O)c1ccc(C(=O)Nc2ccccc2)cc1 (racemic) [DL-HDAC12], which IC50 (HDAC3; [1]) is on record?
**A.** 270 nM

**Q.** What about the IC50 (HDAC3; [2]) of the same molecule?
**A.** 270 nM

**Q.** And the IC50 (HDAC1)?
**A.** 600 nM

**Q.** And the IC50 (HDAC2)?
**A.** 360 nM

**Q.** How did the IC50 (HDAC3; [1]) turn out when Nc1cc(F)ccc1NC(=O)c1ccc(C(=O)NCC(F)(F)F)cc1 (racemic) [DL-HDAC16] was run?
**A.** 420 nM

**Q.** What about the IC50 (HDAC3; [2]) of the same molecule?
**A.** 390 nM

**Q.** What about the IC50 (HDAC1) of the same molecule?
**A.** 2620 nM

**Q.** And the IC50 (HDAC2)?
**A.** 990 nM

**Q.** With Nc1cc(F)ccc1NC(=O)c1ccc(C(=O)NCCc2cccnc2)cc1 (racemic) [DL-HDAC20] as the molecule, how does the IC50 (HDAC3; [1]) read?
**A.** 330 nM

**Q.** And the IC50 (HDAC3; [2])?
**A.** 290 nM

**Q.** And the IC50 (HDAC1)?
**A.** 1730 nM

**Q.** What about the IC50 (HDAC2) of the same molecule?
**A.** 590 nM

**Q.** What does the source list for Cc1cc(NC(=O)c2ccc(C(=O)Nc3ccc(F)cc3N)cc2)n[nH]1 (racemic) [DL-HDAC10]?
**A.** IC50 (HDAC3; [1]): 450 nM; IC50 (HDAC3; [2]): 450 nM; IC50 (HDAC1): 2070 nM; IC50 (HDAC2): 850 nM

**Q.** For Nc1cc(F)ccc1NC(=O)c1ccc(C(=O)NC2CCNCC2)cc1 (racemic) [DL-HDAC18], which IC50 (HDAC3; [1]) is on record?
**A.** 560 nM

**Q.** What about the IC50 (HDAC3; [2]) of the same molecule?
**A.** 530 nM

**Q.** What about the IC50 (HDAC1) of the same molecule?
**A.** 3490 nM

**Q.** And the IC50 (HDAC2)?
**A.** 880 nM

**Q.** For CC(NC(=O)c1ccc(C(=O)Nc2ccc(F)cc2N)cc1)c1ccccc1[N+](=O)[O-] (racemic) [DL-HDAC8], which IC50 (HDAC3; [1]) is on record?
**A.** 420 nM

**Q.** What about the IC50 (HDAC3; [2]) of the same molecule?
**A.** 410 nM

**Q.** What about the IC50 (HDAC1) of the same molecule?
**A.** 1650 nM

**Q.** And the IC50 (HDAC2)?
**A.** 660 nM

**Q.** What does the source list for Nc1cc(F)ccc1NC(=O)c1ccc(C(=O)NCCCBr)cc1 (racemic) [DL-HDAC15]?
**A.** IC50 (HDAC3; [1]): 730 nM; IC50 (HDAC3; [2]): 710 nM; IC50 (HDAC1): 3920 nM; IC50 (HDAC2): 1800 nM

**Q.** Which results are given for Nc1cc(F)ccc1NC(=O)c1ccc(C(=O)Nc2ccc(N3CCOCC3)cc2)cc1 (racemic) [DL-HDAC5]?
**A.** IC50 (HDAC3; [1]): 280 nM; IC50 (HDAC3; [2]): 260 nM; IC50 (HDAC1): 810 nM; IC50 (HDAC2): 440 nM

**Q.** CC(=O)c1ccc(NC(=O)c2ccc(C(=O)Nc3ccc(F)cc3N)cc2)cc1 (racemic) [DL-HDAC17] was tested. Which IC50 (HDAC3; [1]) did it give?
**A.** 170 nM

**Q.** And the IC50 (HDAC3; [2])?
**A.** 150 nM

**Q.** And the IC50 (HDAC1)?
**A.** 1220 nM

**Q.** What about the IC50 (HDAC2) of the same molecule?
**A.** 220 nM

**Q.** Nc1cc(F)ccc1NC(=O)c1ccc(C(=O)NCc2ccccn2)cc1 [LW3] was tested. Which “Selectivity for HDAC3 over other HDAC isoforms” value (HDAC3; HDAC inhibition assays, FIGS. 1A, 1B, 2, 3) did it give?
**A.** selectively inhibits HDAC3 over other HDAC isoforms

**Q.** What about the IC50 (HDAC3; [2]) of the same molecule?
**A.** 390 nM

**Q.** Which results are given for Nc1cc(F)ccc1NC(=O)c1ccc(C(=O)Nc2ccc(Cl)c(C(F)(F)F)c2)cc1 (racemic) [DL-HDAC2]?
**A.** IC50 (HDAC3; [1]): 1330 nM; IC50 (HDAC3; [2]): 1330 nM

**Q.** For Nc1cc(F)ccc1NC(=O)c1ccc(C(=O)Nc2cccc3sccc23)cc1 (racemic) [DL-HDAC4], which IC50 (HDAC3; [1]) is on record?
**A.** 260 nM

**Q.** What about the IC50 (HDAC3; [2]) of the same molecule?
**A.** 270 nM

**Q.** What does the source list for Nc1cc(F)ccc1NC(=O)c1ccc(C(=O)NCc2ccc(Br)cc2)cc1 (racemic) [DL-HDAC13]?
**A.** IC50 (HDAC3; [1]): 120 nM; IC50 (HDAC3; [2]): 120 nM; IC50 (HDAC1): 200 nM; IC50 (HDAC2): 94 nM
